The target of this experiment is GABA-A receptors. Briefly: GABA-A Agonist binding assay (NovaScreen), [3H]-GABA displacement. Further details: species or system bovine. As to conditions: converted from μg/ml; read-out: IC50 for paeoniflorin converted to molarity. Here is the method:
These GABA-A Agonist assays were conducted by NovaScreen Biosciences Corporation (Hanover, Md.) and are described in Falch E., et al., 1986. […] 47(3): 898-903 and Enna S. J., et al., 1977.
In particular, the GABA-A Agonist binding assays use bovine cerebellar membranes as the source of GABA-A receptors. GABA-A, radio labeled with tritium (^3H), is used as both the reference compound and positive control.
The bovine cerebellar membranes are exposed to both [^3H]-GABA and extracts of the desired test substance. In this instance, the bovine cerebellar membranes were exposed to: six extracts of white peony root at concentrations of 0.01, 0.03, 0.1, 0.3, 1, 3, and 10 μg/ml. The GABA-A Agonist assay measures how much radio labeled GABA-A binds to the GABA-A receptors present in the bovine cerebellar membranes.
The results of the GABA-A Agonist binding assays are shown in FIGS. 19-24 and are expressed below in Table I as IC50 in μg/ml.
In particular, the GABA-A Agonist binding assays use bovine cerebellar membranes as the source of GABA-A receptors. GABA-A, radio labeled with tritium (^3H), is used as both the reference compound and positive control. The bovine cerebellar membranes are exposed to both [^3H]-GABA and extracts of the desired test substance. […]

SMILES strings stand for the structures.

As to `C[C@@]12C[C@@]3(O)O[C@@H](O1)[C@]1(COC(=O)c4ccccc4)[C@H]3C[C@@]12O[C@@H]1O[C@H](CO)[C@@H](O)[C@H](O)[C@H]1O` [paeoniflorin], the IC50 (usually the concentration needed to halve the response being measured) was approximately 625 nM.

For the origin of these results see patent US20060275520A1, “White peony extract for improving the duration and quality of sleep” (Access Business Group International LLC, priority 2005, published 2006).
